Data reported in PubChem BioAssay AID504726 (Broad Institute, 2011).
Calls of active or inactive are those of the source.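 Rule for the calls: active = fitted half-maximal concentration for a cytotoxic signal drop no higher than ten times the top valid dose tested; inconclusive = flat curve between -70 and -30 percent, or an unreliable fit; inactive = flat within 30 percent, signal rise, or potency beyond limit.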

Experiment: viability loss in HeLa cells – cell-based, 24 h, cherry-picked samples, cytotoxicity control, dose response (AID 504726);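 note: 0% = DMSO neutral controls and -100% = mitoxantrone positive controls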
Details: HeLa viability, CellTiter-Glo ATP luminescence, 24 h; at 35 µM (top of the series)
With Cc1ccccc1C1=C/C(=C(\SS/C(C(=O)c2ccc(OCC(=O)O)c(Cl)c2Cl)=C2\C=C(c3ccccc3C)SS2)C(=O)c2ccc(OCC(=O)O)c(Cl)c2Cl)SS1 the activity change, negative = cytotoxicity was -8.33% (inactive). With CC(=O)NC(C(=O)c1ccccc1)C(=O)c1ccccc1 the activity change, negative = cytotoxicity was 7.04% (inactive). For CCN(CC)C(=S)SC1CCCCN(C(=O)c2ccccc2)C1=O (configuration not stated), the activity change, negative = cytotoxicity was -6.6% (inactive). In the case of O=C1c2cccc3c(O)ccc(c23)C(=O)N1c1ccc(Cl)cc1, the activity change, negative = cytotoxicity is reported as -8.83% (inactive). In the case of CN(N=Nc1ccc([N+](=O)[O-])cc1)c1ccccc1, the activity change, negative = cytotoxicity is reported as -18.3% (inactive). For O=C(O)C1(c2ccccc2)CCN(S(=O)(=O)c2ccc(Cl)s2)CC1, the activity change, negative = cytotoxicity was -1.76% (inactive). With NC(=O)C1=NOC(CNc2ncc(C(F)(F)F)cc2Cl)C1 (configuration not stated) the activity change, negative = cytotoxicity was -1.63% (inactive). For O=C(NC1CCCCC1)c1cc([N+](=O)[O-])ccc1N1CCOCC1, the activity change, negative = cytotoxicity was -0.855% (inactive). In the case of O=C(c1coc(=O)c(Br)c1)N1CCCc2ccccc21, the activity change, negative = cytotoxicity is reported as -15% (inactive). In the case of Cc1nn(Cc2c(F)c(F)c(F)c(F)c2F)c(C)c1NC(=O)c1ccnn1C, the activity change, negative = cytotoxicity is reported as -4.82% (inactive). For O=C(CN1C(=O)NC2(CCCC2)C1=O)Nc1ccccc1-c1ccccc1, the activity change, negative = cytotoxicity was -3.7% (inactive). In the case of Nc1ccc2nonc2c1[N+](=O)[O-], the activity change, negative = cytotoxicity is reported as 2.26% (inactive). In the case of COC(=O)c1cc(N2CCN(C)CC2)nc2ccccc12, the activity change, negative = cytotoxicity is reported as -6.94% (inactive). In the case of O=C1c2cccc3c(O)ccc(c23)C(=O)N1Cc1ccco1, the activity change, negative = cytotoxicity is reported as 8.13% (inactive). With COc1ccc(Cl)cc1C(=O)NNC(=O)c1cc2ccccc2o1 the activity change, negative = cytotoxicity was -3.35% (inactive). For CCc1cc[n+](-c2nc([O-])sc2C=O)cc1, the activity change, negative = cytotoxicity was 0.003% (inactive). For CCOC(=O)c1sc(NC(=O)CSC(=S)N2CCN(C)CC2)nc1C, the activity change, negative = cytotoxicity was -7.44% (inactive). With Cc1cc(C(F)(F)F)c2c(N)c(C(=O)Nc3cc(C)on3)sc2n1 the activity change, negative = cytotoxicity was -0.48% (inactive). In the case of CC[C@H](C)[C@H](NC(N)=O)C(=O)Nc1ccc(NC(C)=O)cc1, the activity change, negative = cytotoxicity is reported as 6.72% (inactive). In the case of Cc1ccc(C(CC(=O)N2CCCCC2)c2ccccc2)c(O)c1C (configuration not stated), the activity change, negative = cytotoxicity is reported as -3.99% (inactive). With O=C(O)C1C2C=CC(CC2)C1C(=O)O (configuration not stated) the activity change, negative = cytotoxicity was -1.75% (inactive). With CC(=O)N(C(C)=O)N1C(=O)c2cccc3c(N4CCOCC4)ccc(c23)C1=O the activity change, negative = cytotoxicity was -2.78% (inactive). In the case of Cn1c2ccccc2c2cnn(CC(=O)Nc3cccc(F)c3)c(=O)c21, the activity change, negative = cytotoxicity is reported as -9.52% (inactive). In the case of CCN(CC)c1ccc2cc(S(=O)(=O)c3ccc(C)cc3)c(=O)oc2c1, the activity change, negative = cytotoxicity is reported as -3.69% (inactive). In the case of O=C(/C=C\c1ccccc1)Oc1cccc2cccnc12, the activity change, negative = cytotoxicity is reported as -9.78% (inactive). With O=c1ccc2cc3c4c(c2o1)CCCN4CCC3 the activity change, negative = cytotoxicity was -19.7% (inactive). With Nc1ccc(C(=O)Nc2ccc3c(O)cc(S(=O)(=O)O)cc3c2)cc1 the activity change, negative = cytotoxicity was -4.38% (inactive). With O=c1cc2c(=O)oc3cc(O)c(O)oc3c2c(O)c1O the activity change, negative = cytotoxicity was -7.01% (inactive). In the case of O=C(c1ccccc1)c1ccc(O)cc1O, the activity change, negative = cytotoxicity is reported as -20.5% (inactive). For O=C(O)c1ccc2c(c1)[C@@H]1C=CC[C@@H]1[C@H](c1ccccn1)N2, the activity change, negative = cytotoxicity was -31.8% (inactive). For CCN(CC(=O)NCc1cccs1)C(=O)c1ccc(S(=O)(=O)Nc2ccccc2C)cc1, the activity change, negative = cytotoxicity was 2.2% (inactive). For CSCCC(NC(=O)c1ccccc1Cl)C(=O)N1CCCC(C)C1 (configuration not stated), the activity change, negative = cytotoxicity was -15.7% (inactive). In the case of Cc1cccc(NC(=O)CN2C(=O)NC(C)(c3ccc4ccccc4c3)C2=O)n1 (configuration not stated), the activity change, negative = cytotoxicity is reported as -4.54% (inactive). With COC(=O)c1ccccc1OCC(=O)N1CCN(c2ccc(Cl)cc2)CC1 the activity change, negative = cytotoxicity was -6.81% (inactive). For COc1ccc(N(C(=O)c2ccc(Cl)cc2)C2=CC3CCC(C2)N3C)cc1 (configuration not stated), the activity change, negative = cytotoxicity was -1.73% (inactive). In the case of COc1ccccc1C(=O)NCC(=O)OCC(=O)N(CC(C)C)c1c(N)n(Cc2ccccc2)c(=O)[nH]c1=O, the activity change, negative = cytotoxicity is reported as 1.22% (inactive). With CSC(=NS(=O)(=O)c1ccc(N)cc1)NS(=O)(=O)c1cccs1 the activity change, negative = cytotoxicity was -2.85% (inactive). In the case of CCNC(=O)COC(=O)c1cccc(Br)c1, the activity change, negative = cytotoxicity is reported as -0.098% (inactive). With O=C(O)/C=C/c1ccccc1Oc1ccccc1 the activity change, negative = cytotoxicity was -8.62% (inactive). For COc1cc(O)c(C(C)=O)c(CC(=O)O)c1, the activity change, negative = cytotoxicity was -0.718% (inactive). In the case of Cc1ccc(C(=O)CCC(=O)Nc2ncccc2C)cc1, the activity change, negative = cytotoxicity is reported as -3.79% (inactive). With C=CCOC(=O)C1=C[C@H](c2csc3ccccc23)C[C@H](OCc2ccc(CO)cc2)O1 the activity change, negative = cytotoxicity was -9.53% (inactive). In the case of O=C1c2ccccc2C(Nc2ccc3c(c2)OCCO3)N1Cc1ccc2c(c1)OCO2 (configuration not stated), the activity change, negative = cytotoxicity is reported as -13.3% (inactive). In the case of Cc1ccc(NS(=O)(=O)c2ccc(C(=O)NCCCN3CCCC3=O)cc2)cc1, the activity change, negative = cytotoxicity is reported as -5.92% (inactive). In the case of CCCC1(C2CCCC2)NC(=O)NC1=O (configuration not stated), the activity change, negative = cytotoxicity is reported as 0.78% (inactive). With CCc1ccc[n+](-c2[nH]c(=O)sc2/C=N/NC([S-])=Nc2ccccc2)c1 the activity change, negative = cytotoxicity was -14.2% (inactive). In the case of Cc1n[nH]c(C)c1N1C(=O)c2cccc3c(N4CCCCCC4)ccc(c23)C1=O, the activity change, negative = cytotoxicity is reported as -15.8% (inactive). With O=c1[nH][nH]cc1C=Nc1ccc(Cl)cc1Cl the activity change, negative = cytotoxicity was -7.34% (inactive). With CCN(C(=O)COC(=O)CNS(=O)(=O)c1ccc(SC)c([N+](=O)[O-])c1)C1CCCCC1 the activity change, negative = cytotoxicity was -5.61% (inactive). For COc1cc(CN2CC(=O)N(c3cc(Cl)ccc3C)C2=S)cc(OC)c1OC, the activity change, negative = cytotoxicity was -7.61% (inactive). With CCOC(=O)C1C2C=CC3(CN(c4cccc(Cl)c4)C(=O)C13)O2 (configuration not stated) the activity change, negative = cytotoxicity was -5.58% (inactive). With CC(Sc1nc(-c2ccco2)nc2c1c(=O)n(C)c(=O)n2C)C(=O)O (configuration not stated) the activity change, negative = cytotoxicity was -11% (inactive). In the case of O=C(OCc1ccccc1)N1C=CC2CC1c1c(Cl)cccc12 (configuration not stated), the activity change, negative = cytotoxicity is reported as -8.44% (inactive). With COc1ccc(CNC(=O)C2CCC(CNC(=O)[C@@H]3Cc4ccccc4CN3)CC2)cc1 (some centres not stated) the activity change, negative = cytotoxicity was -2.6% (inactive). With Brc1c(CSc2nncc3ccccc23)nc2ccccn12 the activity change, negative = cytotoxicity was -1.12% (inactive). In the case of Cc1cccc(COc2ccc(/C=N/NC(=O)c3nnn(-c4nonc4N)c3COc3ccc(F)cc3)cc2)c1, the activity change, negative = cytotoxicity is reported as -4.08% (inactive). In the case of C/C(=N/NC(=O)c1ccncc1)c1cc2ccc(O)cc2oc1=O, the activity change, negative = cytotoxicity is reported as 3.38% (inactive). For O=C1C(=Cc2ccco2)CCC1=Cc1ccco1, the activity change, negative = cytotoxicity was -6.04% (inactive). For COc1ccc(NC(=O)COC(=O)c2c(-c3ccccc3)noc2C)cc1, the activity change, negative = cytotoxicity was 6.45% (inactive). In the case of O=C1CCCC2=C1C(c1ccc(O)c(O)c1)Nc1ccc3ncccc3c12 (configuration not stated), the activity change, negative = cytotoxicity is reported as -1.08% (inactive). In the case of NC(=S)N/N=C/c1cn(CCC(=O)O)nc1-c1cccc(Br)c1, the activity change, negative = cytotoxicity is reported as -7.24% (inactive). In the case of Cc1ccc(C(=O)c2coc3ccc(O)c(Cl)c23)cc1, the activity change, negative = cytotoxicity is reported as -2.67% (inactive). In the case of c1ccc(-c2cn3nc(-c4ccccc4)c(-c4ccccc4)nc3n2)cc1, the activity change, negative = cytotoxicity is reported as -12.6% (inactive). For CN(C)/C=C1\C=C2C(=O)c3ccccc3N2C1=O, the activity change, negative = cytotoxicity was -8.99% (inactive). With Cc1cccc(-c2nsc(SCC(=O)Nc3nccs3)n2)c1 the activity change, negative = cytotoxicity was -0.205% (inactive). In the case of C/C(=N\NC(=O)CCc1c(C)n[nH]c1C)c1ccc([N+](=O)[O-])cc1, the activity change, negative = cytotoxicity is reported as 6.48% (inactive). For CCc1ccc(N2CC(C(=O)OCC(=O)N(CC)c3c(N)n(Cc4ccccc4)c(=O)[nH]c3=O)CC2=O)cc1 (configuration not stated), the activity change, negative = cytotoxicity was -9.97% (inactive). For COc1cccc(/C=N/NC(=O)C(=O)NCc2cccnc2)c1O, the activity change, negative = cytotoxicity was -7.2% (inactive). With CCCOc1ccc(C=Nc2ccc(OC)c(S(=O)(=O)N3CCOCC3)c2)c(O)c1 the activity change, negative = cytotoxicity was 19% (inactive). For CC(/C=C1\SC(=S)N(CCCC(=O)Nc2ccc(C(=O)O)cc2)C1=O)=C\c1ccccc1, the activity change, negative = cytotoxicity was 3.31% (inactive). In the case of Nc1nc(C(F)(F)F)cc(=O)[nH]1, the activity change, negative = cytotoxicity is reported as -5.29% (inactive). For Cc1cc(-c2nnc(SCC(=O)Nc3ccccc3)n2C)no1, the activity change, negative = cytotoxicity was -3.15% (inactive). For Cc1ccc(-c2nnc(-c3ccc(NC(=O)c4ccco4)cc3)o2)cc1, the activity change, negative = cytotoxicity was -2.7% (inactive). For COc1ccc(/C=N/NC(=O)c2ccc3nc[nH]c3c2)c(OC)c1, the activity change, negative = cytotoxicity was 3.07% (inactive). For CCOC(=O)C1CCCN(c2ccc([N+](=O)[O-])c3nonc23)C1 (configuration not stated), the activity change, negative = cytotoxicity was -8.2% (inactive). In the case of Oc1ccc2ccc3cccc[n+]3c2c1, the activity change, negative = cytotoxicity is reported as -13.8% (inactive). For O=C(O)c1cccc(-n2cccc2/C=C/[N+](=O)[O-])c1, the activity change, negative = cytotoxicity was -0.655% (inactive). With COc1ccc(C)cc1NC(=O)C(OC(=O)c1cnccn1)c1ccccc1 (configuration not stated) the activity change, negative = cytotoxicity was -9.07% (inactive). In the case of Cn1c(=O)c(NC2CCCCC2)c2c3c(cccc31)C(=O)c1ccccc1-2, the activity change, negative = cytotoxicity is reported as -11.9% (inactive). With CN1CCN(C(=S)c2ccc(N(C)C)cc2)CC1 the activity change, negative = cytotoxicity was 6.8% (inactive). For O=C(O)CCCCCn1c(SCC(=O)c2ccc(O)c(O)c2)nc2ccsc2c1=O, the activity change, negative = cytotoxicity was -16.5% (inactive). With CC(=O)OCCCn1c(C)[n+](C)c2cc(Cl)c(Cl)cc21 the activity change, negative = cytotoxicity was -14.3% (inactive). For CCOC(=O)CCCn1c(C)nc(=O)c(-c2ccccc2)c1C, the activity change, negative = cytotoxicity was 4.75% (inactive). For S=c1[nH]nc([C@@H]2C[C@H]2c2ccccc2)n1-c1ccccc1Cl, the activity change, negative = cytotoxicity was -6.51% (inactive). For COCCNC(=O)Nc1ccc2nc(-c3ccco3)c(-c3ccco3)nc2c1, the activity change, negative = cytotoxicity was -18.1% (inactive). For COC(=O)C1CCN(C(=O)COC(=O)Cc2c[nH]c3ccccc23)CC1, the activity change, negative = cytotoxicity was -20.6% (inactive). For COc1cc2c(cc1OC)-c1cc3ccc4c(c3c[n+]1CC2)OCO4, the activity change, negative = cytotoxicity was -12.1% (inactive).
